According to PubChem BioAssay (NCI):
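GI50 = concentration required for 50% inhibition of growth. TGI denotes the concentration required for complete inhibition of growth.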

Key:
Experiment in all cases: NCI-60 cell line screen, 384-well format
COLO 205 colon = system: COLO 205 colon
MDA-MB-231 breast = system: MDA-MB-231 breast
TK-10 renal = system: TK-10 renal
NCI-H322M lung = system: NCI-H322M lung
UACC-257 melanoma = system: UACC-257 melanoma
RXF 393 renal = system: RXF 393 renal
CAKI-1 renal = system: CAKI-1 renal
SF-268 CNS = system: SF-268 CNS
A549 NSCLC = system: A549 NSCLC
SN12C renal = system: SN12C renal
LOX IMVI melanoma = system: LOX IMVI melanoma
SW-620 colon = system: SW-620 colon
MCF7 breast = system: MCF7 breast
SK-OV-3 ovarian = system: SK-OV-3 ovarian
UACC-62 melanoma = system: UACC-62 melanoma
UO-31 renal = system: UO-31 renal
ACHN renal = system: ACHN renal
HL-60(TB) leukemia = system: HL-60(TB) leukemia
OVCAR-5 ovarian = system: OVCAR-5 ovarian
SNB-19 CNS = system: SNB-19 CNS
RPMI-8226 leukemia = system: RPMI-8226 leukemia
BT-549 breast = system: BT-549 breast
SK-MEL-28 melanoma = system: SK-MEL-28 melanoma
KM12 colon = system: KM12 colon
NCI-H226 lung = system: NCI-H226 lung
MALME-3M melanoma = system: MALME-3M melanoma
NCI-H460 NSCLC = system: NCI-H460 NSCLC
A498 renal = system: A498 renal
SR leukemia = system: SR leukemia
T-47D breast = system: T-47D breast
786-0 renal = system: 786-0 renal
CCRF-CEM leukemia = system: CCRF-CEM leukemia
IGROV1 ovarian = system: IGROV1 ovarian
K-562 leukemia = system: K-562 leukemia
OVCAR-3 ovarian = system: OVCAR-3 ovarian
OVCAR-8 ovarian = system: OVCAR-8 ovarian
DU-145 prostate = system: DU-145 prostate
HCC-2998 colon = system: HCC-2998 colon
OVCAR-4 ovarian = system: OVCAR-4 ovarian
NCI/ADR-RES ovarian = system: NCI/ADR-RES ovarian
NCI-H522 lung = system: NCI-H522 lung
MDA-MB-468 breast = system: MDA-MB-468 breast
HS 578T breast = system: HS 578T breast
MDA-MB-435 melanoma = system: MDA-MB-435 melanoma
U251 glioblastoma = system: U251 glioblastoma
MOLT-4 leukemia = system: MOLT-4 leukemia
SF-295 CNS = system: SF-295 CNS
SNB-75 CNS = system: SNB-75 CNS
HCT-15 colon = system: HCT-15 colon
HT29 colon = system: HT29 colon
SF-539 CNS = system: SF-539 CNS
SK-MEL-5 melanoma = system: SK-MEL-5 melanoma
PC-3 prostate = system: PC-3 prostate
HOP-92 NSCLC = system: HOP-92 NSCLC
HOP-62 NSCLC = system: HOP-62 NSCLC
EKVX NSCLC = system: EKVX NSCLC
M14 melanoma = system: M14 melanoma
NCI-H23 lung = system: NCI-H23 lung

Cc1cc(Nc2cc(CN3CCOCC3)c3nc(C)c(Cc4ccc(Cl)cc4F)n3n2)n[nH]1
GI50 (COLO 205 colon): 418 nM
TGI (COLO 205 colon): 1660 nM
GI50 (MDA-MB-231 breast): 1070 nM
TGI (MDA-MB-231 breast): 3020 nM
GI50 (TK-10 renal): 1950 nM
TGI (TK-10 renal): 4720 nM
GI50 (NCI-H322M lung): 1710 nM
TGI (NCI-H322M lung): 4680 nM
GI50 (UACC-257 melanoma): 5450 nM
TGI (UACC-257 melanoma): 20600 nM
GI50 (RXF 393 renal): 612 nM
TGI (RXF 393 renal): 2360 nM
GI50 (CAKI-1 renal): 1030 nM
TGI (CAKI-1 renal): 2240 nM
GI50 (SF-268 CNS): 439 nM
TGI (SF-268 CNS): 1620 nM
GI50 (A549 NSCLC): 772 nM
TGI (A549 NSCLC): 3350 nM
GI50 (SN12C renal): 730 nM
TGI (SN12C renal): 9250 nM
GI50 (LOX IMVI melanoma): 868 nM
TGI (LOX IMVI melanoma): 2130 nM
GI50 (SW-620 colon): 671 nM
TGI (SW-620 colon): 8260 nM
GI50 (MCF7 breast): 894 nM
TGI (MCF7 breast): 6570 nM
GI50 (SK-OV-3 ovarian): 1230 nM
TGI (SK-OV-3 ovarian): 3380 nM
GI50 (UACC-62 melanoma): 1230 nM
TGI (UACC-62 melanoma): 2990 nM
GI50 (UO-31 renal): 1440 nM
TGI (UO-31 renal): 2880 nM
GI50 (ACHN renal): 1270 nM
TGI (ACHN renal): 7950 nM
GI50 (HL-60(TB) leukemia): 302 nM
TGI (HL-60(TB) leukemia): 670 nM
GI50 (OVCAR-5 ovarian): 1060 nM
TGI (OVCAR-5 ovarian): 3580 nM
GI50 (SNB-19 CNS): 1850 nM
TGI (SNB-19 CNS): 4250 nM
GI50 (RPMI-8226 leukemia): 205 nM
TGI (RPMI-8226 leukemia): 516 nM
GI50 (BT-549 breast): 842 nM
TGI (BT-549 breast): 2780 nM
GI50 (SK-MEL-28 melanoma): 2390 nM
TGI (SK-MEL-28 melanoma): 15000 nM
GI50 (KM12 colon): 37.8 nM
TGI (KM12 colon): 1470 nM
GI50 (NCI-H226 lung): 324 nM
TGI (NCI-H226 lung): 2080 nM
GI50 (MALME-3M melanoma): 1490 nM
TGI (MALME-3M melanoma): 9790 nM
GI50 (NCI-H460 NSCLC): 356 nM
TGI (NCI-H460 NSCLC): 1030 nM
GI50 (A498 renal): 724 nM
TGI (A498 renal): 3290 nM
GI50 (SR leukemia): 166 nM
TGI (SR leukemia): 312 nM
GI50 (T-47D breast): 855 nM
TGI (T-47D breast): 14000 nM
GI50 ([…]-0 renal): 688 nM
TGI (786-0 renal): 2320 nM
GI50 (CCRF-CEM leukemia): 276 nM
TGI (CCRF-CEM leukemia): 604 nM
GI50 (IGROV1 ovarian): 1690 nM
TGI (IGROV1 ovarian): 3360 nM
GI50 (K-562 leukemia): 380 nM
TGI (K-562 leukemia): 1360 nM
GI50 (OVCAR-3 ovarian): 825 nM
TGI (OVCAR-3 ovarian): 2960 nM
GI50 (OVCAR-8 ovarian): 1370 nM
TGI (OVCAR-8 ovarian): 3650 nM
GI50 (DU-145 prostate): 1020 nM
TGI (DU-145 prostate): 3000 nM
GI50 (HCC-2998 colon): 1130 nM
TGI (HCC-2998 colon): 2390 nM
GI50 (OVCAR-4 ovarian): 874 nM
TGI (OVCAR-4 ovarian): 5880 nM
GI50 (NCI/ADR-RES ovarian): 2520 nM
TGI (NCI/ADR-RES ovarian): 7880 nM
GI50 (NCI-H522 lung): 366 nM
TGI (NCI-H522 lung): 1110 nM
GI50 (MDA-MB-468 breast): 271 nM
TGI (MDA-MB-468 breast): 535 nM
GI50 (HS 578T breast): 586 nM
TGI (HS 578T breast): 1810 nM
GI50 (MDA-MB-435 melanoma): 563 nM
TGI (MDA-MB-435 melanoma): 15100 nM
GI50 (U251 glioblastoma): 1200 nM
TGI (U251 glioblastoma): 2750 nM
GI50 (MOLT-4 leukemia): 162 nM
TGI (MOLT-4 leukemia): 336 nM
GI50 (SF-295 CNS): 1210 nM
TGI (SF-295 CNS): 2700 nM
GI50 (SNB-75 CNS): 812 nM
TGI (SNB-75 CNS): 2350 nM
GI50 (HCT-15 colon): 1110 nM
TGI (HCT-15 colon): 12000 nM
GI50 (HT29 colon): 1730 nM
TGI (HT29 colon): 16100 nM
GI50 (SF-539 CNS): 1080 nM
TGI (SF-539 CNS): 2450 nM
GI50 (SK-MEL-5 melanoma): 693 nM
TGI (SK-MEL-5 melanoma): 5820 nM
GI50 (PC-3 prostate): 2200 nM
TGI (PC-3 prostate): 13700 nM
GI50 (HOP-92 NSCLC): 554 nM
TGI (HOP-92 NSCLC): 2560 nM
GI50 (HOP-62 NSCLC): 1050 nM
TGI (HOP-62 NSCLC): 2950 nM
GI50 (EKVX NSCLC): 1580 nM
TGI (EKVX NSCLC): 8090 nM
GI50 (M14 melanoma): 1740 nM
TGI (M14 melanoma): 11800 nM
GI50 (NCI-H23 lung): 578 nM
TGI (NCI-H23 lung): 2570 nM
